Source: patent publication US10206937B2, “Boronic acid derivatives and therapeutic uses thereof” (Qpex Biopharma, Inc., priority 2014, dated 2019)
Like-named read-outs stand apart in the source and are kept apart here.

What was measured:
[1] = Serum stability of prodrugs: hydrolysis by human serum; type: in vitro ADME; conditions: prodrug; for Measured Initial Conc. in Serum: 37 degrees, sampled immediately
Protocol: (§1) Prodrug strategy is one of the ways to achieve or increase oral bioavailability for therapeutic drugs. Compound 62 was used as a template for various ester prodrugs. After a prodrug molecule is absorbed into systemic circulation, it should be hydrolyzed in the blood in order to release the active form. Hydrolysis of several prodrugs by rat and human serum were evaluated.
(§2) For all stability experiments the test compounds were treated with rat or human serum in Eppendorf tubes. Typically, 980 μl of serum was prewarmed at 37 degrees for 2 minutes and then 20 μl of a compound (at 1 mg/ml, 50×) was added to it to get a final concentration of 20 μg/ml and immediately mixed. Duplicate samples were tested. […] After vortexing for 30 seconds, the tube was centrifuged in a microcentrifuge for 10 minutes at 15K rpm. Next, 100 μl of the supernatant was combined with 600 μl of water and injected on LC-MS using 0.1% formic acid in water for mobile phase A and 0.1% formic acid in methanol for mobile phase B on an ACE 5 C18 2.1×100 mm column with a 10 μL it injection. The flow rate and gradient were adjusted as needed to give the desired resolution and run time. The pH of the mobile phase was adjusted if needed to improve the chromatography.
(§3) The time course of both the disappearance of a prodrug and the appearance of the active form of that prodrug is presented in Table 13 and Table 14. The active metabolites for all of the listed prodrugs are corresponding parent drugs

[2] = Serum stability of prodrugs: hydrolysis by rat serum; type: in vitro ADME; conditions: rat serum, prodrug; for Measured Initial Conc. in Serum: 37 degrees, sampled immediately
Protocol: as §1, §2, §3

NDM-1 [3] = target: T1, NDM-1 (Klebsiella pneumoniae, UniProt C7C422); test: biochemical
T1 sequence (C7C422 29-270, looked up, species assumed): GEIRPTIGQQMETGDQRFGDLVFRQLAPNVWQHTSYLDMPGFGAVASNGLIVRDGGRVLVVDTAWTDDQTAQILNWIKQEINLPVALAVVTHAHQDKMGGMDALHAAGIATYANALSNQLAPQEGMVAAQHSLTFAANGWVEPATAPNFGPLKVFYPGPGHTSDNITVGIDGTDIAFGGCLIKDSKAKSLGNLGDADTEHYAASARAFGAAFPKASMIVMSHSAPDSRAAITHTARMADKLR

VIM-1 = target: T2, VIM-1 (Pseudomonas aeruginosa, UniProt A0A0F7KYQ8); test: biochemical; conditions: cleavage of nitrocefin (200 uM) by VIM-1 supernatant
T2 construct: made in house; host or cells: ECM6711 strain carrying pUCP24-VIM-1 plasmid; culture supernatant used unpurified

KPC-2 = KPC-2 (Klebsiella pneumoniae, UniProt Q9F663); test: Inhibition of purified class A carbapenemase KPC-2 (Ki, carbapenem substrates); type: biochemical
Sequence of KPC-2 (Q9F663 25-293 limits assumed): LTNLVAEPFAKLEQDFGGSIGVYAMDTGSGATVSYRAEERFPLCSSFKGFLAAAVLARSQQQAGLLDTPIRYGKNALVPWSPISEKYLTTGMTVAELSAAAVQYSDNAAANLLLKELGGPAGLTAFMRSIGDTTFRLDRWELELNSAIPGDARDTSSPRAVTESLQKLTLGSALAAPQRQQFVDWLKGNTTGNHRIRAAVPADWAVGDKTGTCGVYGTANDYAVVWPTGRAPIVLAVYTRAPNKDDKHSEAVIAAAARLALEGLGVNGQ

OXA-48 = OXA-48 (Klebsiella pneumoniae, UniProt Q6XEC0); test: Inhibition of purified class D carbapenemase OXA-48 (Ki, carbapenem substrates); type: biochemical
Sequence of OXA-48 (Q6XEC0 23-265, looked up): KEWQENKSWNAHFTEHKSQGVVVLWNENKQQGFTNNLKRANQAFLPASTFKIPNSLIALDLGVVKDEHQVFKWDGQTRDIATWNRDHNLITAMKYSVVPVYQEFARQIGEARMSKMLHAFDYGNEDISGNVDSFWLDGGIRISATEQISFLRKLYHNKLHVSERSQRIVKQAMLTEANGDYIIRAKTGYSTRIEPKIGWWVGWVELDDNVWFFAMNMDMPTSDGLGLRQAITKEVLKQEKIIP

NDM-1 [4] = target: T1, NDM-1; test: Inhibition of purified class B carbapenemase NDM-1 (Ki, imipenem substrate); type: biochemical; conditions: NDM-1, substrate imipenem; read-out: Ki NDM-1, Imipenem
[5] = target: purified class A, C and D enzymes (Enterobacter cloacae, UniProt P05364); type: biochemical; conditions: purified P99/AmpC of ECL; nitrocefin reporter substrate
Sequence of purified class A, C and D enzymes (Enterobacter cloacae, UniProt P05364) (P05364 21-381): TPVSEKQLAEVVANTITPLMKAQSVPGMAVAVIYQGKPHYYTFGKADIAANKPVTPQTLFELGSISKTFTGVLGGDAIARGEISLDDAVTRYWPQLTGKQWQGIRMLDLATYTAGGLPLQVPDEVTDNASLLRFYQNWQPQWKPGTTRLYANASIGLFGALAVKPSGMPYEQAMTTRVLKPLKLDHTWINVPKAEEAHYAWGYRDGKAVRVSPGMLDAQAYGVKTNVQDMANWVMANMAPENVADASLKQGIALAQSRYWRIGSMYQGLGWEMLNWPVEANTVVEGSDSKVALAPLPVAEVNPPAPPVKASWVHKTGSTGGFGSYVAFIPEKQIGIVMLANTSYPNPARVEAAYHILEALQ

[6] = target: purified class A, C and D enzymes (Escherichia coli, UniProt Q9L5C7); type: biochemical; conditions: purified CTX-M-14; nitrocefin reporter substrate
Sequence of purified class A, C and D enzymes (Escherichia coli, UniProt Q9L5C7) (Q9L5C7 entry or part of it): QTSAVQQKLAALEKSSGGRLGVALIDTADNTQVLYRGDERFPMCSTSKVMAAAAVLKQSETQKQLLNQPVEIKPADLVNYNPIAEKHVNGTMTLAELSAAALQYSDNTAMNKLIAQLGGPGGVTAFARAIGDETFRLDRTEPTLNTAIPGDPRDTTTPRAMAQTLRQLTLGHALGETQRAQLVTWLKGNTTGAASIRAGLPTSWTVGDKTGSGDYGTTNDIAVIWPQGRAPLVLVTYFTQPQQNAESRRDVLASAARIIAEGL

[7] = target: T3, purified class A, C and D enzymes (UniProt P0AD64, L31Q/G234S/E235K, species not given); type: biochemical; conditions: read-out: Ki (SHV-12, NCF); purified SHV-12; nitrocefin reporter substrate
T3 construct: Ki (SHV-12, NCF); other: purified SHV-12; nitrocefin reporter substrate
T3 sequence (P0AD64 1-286 L31Q/G234S/E235K): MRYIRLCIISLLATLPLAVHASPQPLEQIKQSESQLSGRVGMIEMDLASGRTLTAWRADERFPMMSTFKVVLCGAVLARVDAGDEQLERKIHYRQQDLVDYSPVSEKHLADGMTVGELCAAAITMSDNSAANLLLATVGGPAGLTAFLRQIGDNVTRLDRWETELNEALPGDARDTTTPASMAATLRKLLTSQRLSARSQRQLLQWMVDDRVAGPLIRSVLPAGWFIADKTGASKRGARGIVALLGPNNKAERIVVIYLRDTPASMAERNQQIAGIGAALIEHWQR

[8] = target: T4, purified class A, C and D enzymes (UniProt Q6XEC0); type: biochemical; conditions: read-out: Ki (OXA-48, NCF); purified OXA-48; nitrocefin reporter substrate
T4 construct: rows headed: Ki (OXA-48, NCF); other: purified OXA-48; nitrocefin reporter substrate

[9] = target: T5, purified class A, C and D enzymes (UniProt Q9F663); type: biochemical; conditions: read-out: Ki (KPC-2, NCF); purified KPC-2; nitrocefin reporter substrate
T5 construct: rows headed: Ki (KPC-2, NCF); other: purified KPC-2; nitrocefin reporter substrate

[10] = tested on: strains of Enterobacteriaceae producing various carbapenemases (class A, D and B; 104 strains); test: Antibiotics potentiation by Compound 27 (MIC; meropenem, doripenem, ertapenem, cefepime); type: cell-based; conditions: Compound 27 at a fixed concentration of 4 μg/ml
[11] = tested on: strains of Enterobacteriaceae overexpressing various carbapenemases (class A and B); test: organism not typed; type: cell-based
Text: Several strains simultaneously expressing both class A and class B carbapenemases, which were constructed using conjugation, were also included in the panel.

[12] = tested on: strains of Enterobacteriaceae producing various carbapenemases (class A, D and B; 169 strains); test: Meropenem or tebipenem potentiation by Compounds 97 or 62 (MIC); type: cell-based; conditions: Compound 62 at a fixed concentration of 8 μg/ml
Protocol: The largest panel of clinical isolates expressing class A, D and B carbapenemases alone or in combination with other beta-lactamases (169 strains) was used to evaluate carbapenem potentiation activity of Compounds 97 and 62. MIC for meropenem and tebipenem of these strains were determined either alone or in the presence of Compounds 97 or 62, respectively, at a fixed concentration of 8 μg/ml in the growth media.

[13] = cleavage of biapenem (100 uM) by NDM-1, read-out: Ki, Biapenem
[14] = cleavage of imipenem (100 uM) by NDM-1, read-out: Ki, Imipenem
[15] = cleavage of meropenem (100 uM) by NDM-1, read-out: Ki, Meropenem
[16] = cleavage of tebipenem (100 uM) by NDM-1, read-out: Ki, Tebipenem
[17] = cleavage of biapenem by KPC-2, read-out: Ki, Biapenem
[18] = cleavage of doripenem by KPC-2, read-out: Ki, Doripenem
[19] = cleavage of imipenem by KPC-2, read-out: Ki, Imipenem
[20] = cleavage of meropenem by KPC-2, read-out: Ki, Meropenem
[21] = cleavage of tebipenem by KPC-2, read-out: Ki, Tebipenem
[22] = purified KPC-2, substrate biapenem, read-out: Ki KPC-2, Biapenem
[23] = cleavage of biapenem by OXA-48, read-out: Ki, Biapenem
[24] = cleavage of doripenem by OXA-48, read-out: Ki, Doripenem
[25] = cleavage of imipenem by OXA-48, read-out: Ki, Imipenem
[26] = cleavage of meropenem by OXA-48, read-out: Ki, Meropenem
[27] = cleavage of tebipenem by OXA-48, read-out: Ki, Tebipenem
[28] = purified OXA-48, substrate biapenem, read-out: Ki OXA-48, Biapenem

Row | SMILES | Measured Initial Conc. in Serum [1] | Conc. at t = 1 hr [1] | Conc. at t = 3 hr [1] | Measured Initial Conc. in Serum [2] | Ki (NDM-1 [3]; [13]) | Ki (NDM-1 [3]; [14]) | IC50 (VIM-1) | Ki (KPC-2; [17]) | Ki (KPC-2; [18]) | Ki (KPC-2; [19]) | Ki (KPC-2; [20]) | Ki (OXA-48; [23]) | Ki (OXA-48; [24]) | Ki (OXA-48; [25]) | Ki (OXA-48; [26]) | Ki (OXA-48; [27]) | Ki (NDM-1 [4]) | Ki [7] | Ki [8] | Ki [9] | other results
1 | COc1ccc2c(c1C(=O)OCOC(=O)C(C)(C)C)OB(O)[C@@H](Sc1nncs1)C2 [Compound 125, 2,2-dimethylpropanoyloxymethyl (3R)-2-hydroxy-7-methoxy-3-(1,3,4-thiadiazol-2-ylsulfanyl)-3,4-dihydro-1,2-benzoxaborinine-8-carboxylate] | 41.8 µM | 27.4 µM | 41.4 µM | 37.6 µM |  |  |  |  |  |  |  |  |  |  |  |  |  |  |  |  | Conc. at t = 1 hr [2]: 28.5 µM; Conc. at t = 3 hr [2]: 48.2 µM
2 | COc1ccc2c(c1C(=O)O)OB(O)[C@@H](Sc1nnc(N)s1)C2 [Compound 27, (R)-3-(5-amino-1,3,4-thiadiazol-2-ylthio)-2-hydroxy-7-methoxy-3,4-dihydro-2H-benzo[e][1,2]oxaborinine-8-carboxylic acid] |  |  |  |  | 10 to 100 nM | 10 to 100 nM | < 1000 nM | < 10 nM | < 10 nM | 10 to 100 nM | < 10 nM | < 10 nM | < 10 nM | < 10 nM | < 10 nM | < 10 nM | 10 to 100 nM | < 100 nM | < 100 nM | < 100 nM | Ki (NDM-1 [3]; [15]): < 10 nM; Ki (NDM-1 [3]; [16]): 10 to 100 nM; Ki (KPC-2; [21]): < 10 nM; Ki (KPC-2; [22]): 10 to 100 nM; Ki (OXA-48; [28]): 10 to 100 nM; Ki (P99/AmpC of ECL, NCF) [5]: Y (0.1 μM to 1 μM); Ki (CTX-M-14, NCF) [6]: X (Less than 0.1 μM); antibiotics MIC (meropenem, doripenem, ertapenem, cefepime) [10]: significantly reduced
3 | COc1ccc2c(c1C(=O)OCOC(=O)C(C)C)OB(O)[C@@H](Sc1nncs1)C2 [Compound 121, 2-methylpropanoyloxymethyl (3R)-2-hydroxy-7-methoxy-3-(1,3,4-thiadiazol-2-ylsulfanyl)-3,4-dihydro-1,2-benzoxaborinine-8-carboxylate] | 51.4 µM | 38.6 µM | 24.8 µM | 31.3 µM |  |  |  |  |  |  |  |  |  |  |  |  |  |  |  |  | Conc. at t = 1 hr [2]: 40.7 µM; Conc. at t = 3 hr [2]: 24.3 µM
4 | Nn1cnnc1S[C@H]1Cc2cccc(C(=O)O)c2OB1O [Compound 14, (R)-3-(4-amino-4H-1,2,4-triazol-3-ylthio)-2-hydroxy-3,4-dihydro-2H-benzo[e][1,2]oxaborinine-8-carboxylic acid] |  |  |  |  | < 10 nM | < 10 nM | < 1000 nM |  |  |  |  | 10 to 100 nM |  | 10 to 100 nM | > 100 nM | > 100 nM |  | < 100 nM | < 100 nM |  | Ki (NDM-1 [3]; [15]): < 10 nM; carbapenem MIC (imipenem, meropenem) [11]: significantly reduced
5 | Nc1nnc(S[C@H]2Cc3ccc(F)c(C(=O)O)c3OB2O)s1 [Compound 23, (R)-3-(5-amino-1,3,4-thiadiazol-2-ylthio)-7-fluoro-2-hydroxy-3,4-dihydro-2H-benzo[e][1,2]oxaborinine-8-carboxylic acid] |  |  |  |  |  | 10 to 100 nM | ≥ 1000 nM | < 10 nM | < 10 nM | 10 to 100 nM | < 10 nM | < 10 nM | < 10 nM | < 10 nM | < 10 nM | < 10 nM | 10 to 100 nM | < 100 nM | < 100 nM | < 100 nM | Ki (KPC-2; [21]): < 10 nM
6 | COc1ccc2c(c1C(=O)O)OB(O)[C@@H](Sc1nncs1)C2 [Compound 62, (3R)-2-hydroxy-7-methoxy-3-(1,3,4-thiadiazol-2-ylsulfanyl)-3,4-dihydro-1,2-benzoxaborinine-8-carboxylic acid] |  |  |  |  | 10 to 100 nM | > 100 nM | < 1000 nM | < 10 nM | < 10 nM | 10 to 100 nM | < 10 nM | < 10 nM | < 10 nM | < 10 nM | < 10 nM |  | > 100 nM | < 100 nM | < 100 nM | < 100 nM | Ki (KPC-2; purified KPC-2, substrate biapenem, numeric value, read-out: Ki KPC-2, Biapenem): 3.9 nM; Ki (OXA-48; purified OXA-48, substrate biapenem, numeric value, read-out: Ki OXA-48, Biapenem): 5.6 nM; Ki (P99/AmpC of ECL, NCF) [5]: Y (0.1 μM to 1 μM); Ki (CTX-M-14, NCF) [6]: X (Less than 0.1 μM); tebipenem MIC [12]: significantly reduced
7 | CCOC(=O)OCOC(=O)c1c(OC)ccc2c1OB(O)[C@@H](Sc1nncs1)C2 [Compound 124, ethoxycarbonyloxymethyl (3R)-2-hydroxy-7-methoxy-3-(1,3,4-thiadiazol-2-ylsulfanyl)-3,4-dihydro-1,2-benzoxaborinine-8-carboxylate] | 48.3 µM | 38.3 µM | 45.9 µM | 44.9 µM |  |  |  |  |  |  |  |  |  |  |  |  |  |  |  |  | Conc. at t = 1 hr [2]: 36.8 µM; Conc. at t = 3 hr [2]: 41.2 µM
8 | CSc1ccc2c(c1C(=O)O)OB(O)[C@@H](Sc1nnc(N)s1)C2 [Compound 30, (R)-3-(5-amino-1,3,4-thiadiazol-2-ylthio)-2-hydroxy-7-(methylthio)-3,4-dihydro-2H-benzo[e][1,2]oxaborinine-8-carboxylic acid] |  |  |  |  | 10 to 100 nM | 10 to 100 nM | < 1000 nM | < 10 nM | < 10 nM | 10 to 100 nM | < 10 nM | < 10 nM | < 10 nM | < 10 nM | < 10 nM | < 10 nM | 10 to 100 nM | < 100 nM | < 100 nM | < 100 nM | Ki (NDM-1 [3]; [15]): < 10 nM; Ki (NDM-1 [3]; [16]): 10 to 100 nM; Ki (KPC-2; [21]): < 10 nM; Ki (KPC-2; [22]): 10 to 100 nM; Ki (OXA-48; [28]): 10 to 100 nM; Ki (P99/AmpC of ECL, NCF) [5]: X (Less than 0.1 μM); Ki (CTX-M-14, NCF) [6]: X (Less than 0.1 μM)
